Measurements taken from patent US8507470B2, “Substituted arylamide oxazepinopyrimidone derivatives” (Sanofi, priority 2008, dated 2013).
Counter-ions that a name gives are not always drawn.

Experiments:
[1] = target: GSK3β (Homo sapiens, UniProt P49841); test: Inhibitory activity against GSK3β (33P-ATP phosphorylation of prephosphorylated GS1 peptide); format: biochemical; conditions: protocol 4: commercial GSK3beta (Millipore), 7.5 μM GS1 peptide, 10 μM ATP, 90 minutes at room temperature
Protocol: Test Example: Inhibitory Activity of the Medicament of the Present Invention against GSK3β: Four different protocols can be used. In a first protocol: 7.5 μM of prephosphorylated GS1 peptide and 10 μM ATP (containing 300,000 cpm of ^33P-ATP) were incubated in 25 mM Tris-HCl, pH 7.5, 0.6 mM DTT, 6 mM MgCl2, 0.6 mM EGTA, 0.05 mg/ml BSA buffer for 1 hour at room temperature in the presence of GSK3beta (total reaction volume: 100 microliters). In a second protocol: 4.1 μM of prephosphorylated GS1 peptide and 42 μM ATP (containing 260,000 cpm ^33P-ATP) were incubated in 80 mM Mes-NaOH, pH 6.5, 1 mM Mg acetate, 0.5 mM EGTA, 5 mM 2-mercaptoethanol, 0.02% Tween 20, 10% glycerol buffer for 2 hours at room temperature in the presence of GSK3beta. In a third protocol: 7.5 μM of prephosphorylated GS1 peptide and 10 μM ATP (containing 300,000 cpm of ^33P-ATP) were incubated in 50 mM Hepes, pH 7.2, 1 mM DTT, 1 mM MgCl2, 1 mM EGTA, 0.01% Tween 20 buffer for one hour at room temperature in the presence of GSK3beta (total reaction volume: 100 microliters). In a fourth protocol: 7.5 μM of prephosphorylated GS1 peptide and 10 μM ATP (containing 300,000 cpm of ^33P-ATP) were incubated in 50 mM Hepes, pH 7.2, 1 mM DTT, 1 mM MgCl2, 1 mM EGTA, 0.01% Tween 20 buffer for 90 minutes at room temperature in the presence of commercial GSK3beta (Millipore) (total reaction volume: 100 microliters). Inhibitors were solubilised in DMSO (final solvent concentration in the reaction medium, 1%). The reaction was stopped with 100 microliters of a solution made of 25 g polyphosphoric acid (85% P2O5), 126 ml 85% H3PO4, H2O to 500 ml and then diluted to 1:100 before use. An aliquot of the reaction mixture was then transferred to Whatman P81 cation exchange filters and rinsed with the solution described above. Incorporated ^33P radioactivity was determined by liquid scintillation spectrometry. The phosphorylated GS-1 peptide had the following sequence: NH2-[…](P)EDEE-COOH.(Woodgett, J. R. (1989) Analytical Biochemistry 180, 237-241.

GSK3β, sequence (P49841 whole entry): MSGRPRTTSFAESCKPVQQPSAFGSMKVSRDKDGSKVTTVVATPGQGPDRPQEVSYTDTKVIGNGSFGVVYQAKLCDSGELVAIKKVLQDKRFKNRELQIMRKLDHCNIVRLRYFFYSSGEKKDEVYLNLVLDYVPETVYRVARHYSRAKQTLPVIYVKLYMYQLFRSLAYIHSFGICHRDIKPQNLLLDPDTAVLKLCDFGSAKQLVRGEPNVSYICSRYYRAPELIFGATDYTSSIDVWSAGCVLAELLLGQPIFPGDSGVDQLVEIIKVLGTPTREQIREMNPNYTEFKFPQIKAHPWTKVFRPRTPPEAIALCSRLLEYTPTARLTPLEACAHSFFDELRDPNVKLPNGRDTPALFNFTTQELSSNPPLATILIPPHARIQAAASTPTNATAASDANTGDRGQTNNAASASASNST

SMILES	IC50 [1] [nM]	melting point [°C]
COc1ccc(Cl)cc1C(=O)NC1COCCn2c1nc(-c1ccncc1)cc2=O (racemic) [compound No. 19, (+/−)-5-Chloro-2-methoxy-N-(4-oxo-2-pyridin-4-yl-5,6,8,9-tetrahydro-4H-7-oxa-1,4a-diaza-benzocyclohepten-9-yl)-benzamide]	2	235 to 237
COc1ccccc1CNC1COCCn2c1nc(-c1ccncn1)cc2=O (racemic) [compound No. 21, (+/−)-9-(2-Methoxy-benzylamino)-2-pyrimidin-4-yl-5,6,8,9-tetrahydro-7-oxa-1,4a-diaza-benzocyclohepten-4-one]	41	
COc1ccc(S(N)(=O)=O)cc1C(=O)NC1COCCn2c1nc(-c1ccncn1)cc2=O (racemic) [compound No. 7, (+/−)-2-Methoxy-N-(4-oxo-2-pyrimidin-4-yl-5,6,8,9-tetrahydro-4H-7-oxa-1,4a-diaza-benzocyclohepten-9-yl)-5-sulfamoyl-benzamide]	0.5	257 to 259
COc1ccccc1CNC1COCCn2c1nc(-c1ccncn1)cc2=O (racemic) (as salt: HCl) [compound No. 21, (+/−)-9-(2-Methoxy-benzylamino)-2-pyrimidin-4-yl-5,6,8,9-tetrahydro-7-oxa-1,4a-diaza-benzocyclohepten-4-one]		254 to 256
CC(=O)Oc1ccccc1C(=O)NC1COCCn2c1nc(-c1ccncn1)cc2=O (racemic) [compound No. 14, (+/−)-Acetic acid 2-(4-oxo-2-pyrimidin-4-yl-5,6,8,9-tetrahydro-4H-7-oxa-1,4a-diaza-benzocyclohepten-9-ylcarbamoyl)-phenyl ester]	10	202 to 204
